Test results: US20240228488A1 (TAKEDA PHARMACEUTICAL COMPANY LIMITED, priority 2021, published 2024)
pEC50: −log10 of the molar value.

Target: human activated kallikrein enzyme (Homo sapiens, UniProt P03952)
Experiment: Plasma kallikrein inhibition, fluorogenic PFR-AMC substrate, 500 pM activated kallikrein format
Format: biochemical
Settings: 500 pM activated kallikrein, 300 uM PFR-AMC, 30 min preincubation, 10 min reaction; read-out: Primary Dose Response Assay: Average EC50
Method in brief: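 Enzyme (500 pM) was preincubated with inhibitor for 30 min at room temperature in 20 mM Tris pH 7.5, 1 mM EDTA, 150 mM NaCl, 0.1% PEG-400 and 0.1% Triton X-100. The reaction was started with 300 uM PFR-AMC, run 10 min, and fluorescence read at 460 nm (380 nm excitation). EC50 derived.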

human activated kallikrein enzyme, sequence (P03952 391-638 limits assumed): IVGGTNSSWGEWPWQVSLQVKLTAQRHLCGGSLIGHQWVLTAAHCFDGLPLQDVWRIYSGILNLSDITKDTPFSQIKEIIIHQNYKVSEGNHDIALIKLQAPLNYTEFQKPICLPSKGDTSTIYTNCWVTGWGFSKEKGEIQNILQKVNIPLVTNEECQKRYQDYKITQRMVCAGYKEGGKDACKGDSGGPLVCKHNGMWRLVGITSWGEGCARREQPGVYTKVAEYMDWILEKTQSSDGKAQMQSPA
human activated kallikrein enzyme, sequence (P03952 20-390 partner limits assumed): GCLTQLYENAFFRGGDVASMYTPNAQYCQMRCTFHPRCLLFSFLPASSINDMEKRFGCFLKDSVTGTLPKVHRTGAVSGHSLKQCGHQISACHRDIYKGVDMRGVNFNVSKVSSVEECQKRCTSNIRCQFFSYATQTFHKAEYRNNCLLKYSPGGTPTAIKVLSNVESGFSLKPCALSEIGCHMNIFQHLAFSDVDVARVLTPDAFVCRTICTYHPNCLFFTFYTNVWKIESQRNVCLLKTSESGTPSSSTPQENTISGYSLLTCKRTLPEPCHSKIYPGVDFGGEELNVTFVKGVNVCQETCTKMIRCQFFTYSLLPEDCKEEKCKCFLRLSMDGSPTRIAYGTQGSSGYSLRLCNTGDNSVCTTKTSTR

Structure (SMILES) | pEC50
Nc1cc(C2CC2)cn2cc(CNc3cc(NC(=O)[C@H]4C[C@@H]4c4cccc(Cl)c4)ncn3)nc12 [Example 308, (1S,2S)—N-(6-(((8-amino-6-cyclopropylimidazo[1,2-a]pyridin-2-yl)methyl)amino)pyrimidin-4-yl)-2-(3-chlorophenyl)cyclopropane-1-carboxamide] | 8.00 to 9.00
O=C(Nc1cc(NCc2cn3cc(C4CC4)cc(N4CCN(C5CC5)CC4)c3n2)ncn1)[C@H]1C[C@@H]1c1cccc(Cl)c1 [Example I-201, (1S,2S)-2-(3-chlorophenyl)-N-(6-(((6-cyclopropyl-8-(4-cyclopropylpiperazin-1-yl)imidazo[1,2-a]pyridin-2-yl)methyl)amino)pyrimidin-4-yl)cyclopropane-1-carboxamide] | 8.00 to 9.00
Cc1ccnc([C@H]2C[C@@H]2C(=O)Nc2ccc(F)c(NCc3cn4cc(C5CC5)cc(N5CC(=O)N(C)C5=O)c4n3)c2)n1 [Example 656, (1S,2S)—N-(3-(((6-cyclopropyl-8-(3-methyl-2,4-dioxoimidazolidin-1-yl)imidazo[1,2-a]pyridin-2-yl)methyl)amino)-4-fluorophenyl)-2-(4-methylpyrimidin-2-yl)cyclopropane-1-carboxamide] | > 9.00
Cc1ccnc([C@H]2C[C@@H]2C(=O)Nc2cc(OCc3ccccc3)cc(OCc3cn4cc(C5CC5)cc(N5CC(=O)N(C)C5=O)c4n3)n2)n1 [Example 660, (1S,2S)—N-(4-(benzyloxy)-6-((6-cyclopropyl-8-(3-methyl-2,4-dioxoimidazolidin-1-yl)imidazo[1,2-a]pyridin-2-yl)methoxy)pyridin-2-yl)-2-(4-methylpyrimidin-2-yl)cyclopropane-1-carboxamide] | 7.00 to 8.00
O=C(Nc1nccnc1OCc1cn2cc(C3CC3)ccc2n1)[C@H]1C[C@@H]1c1cccc(Cl)c1 [Example 570, (1S,2S)-2-(3-chlorophenyl)-N-(3-((6-cyclopropylimidazo[1,2-a]pyridin-2-yl)methoxy)pyrazin-2-yl)cyclopropane-1-carboxamide] | 7.00 to 8.00
NC(=O)c1cc(C2CC2)cn2cc(CNc3cc(NC(=O)[C@H]4C[C@@H]4c4cccc(Cl)c4)ncn3)nc12 [Example 302, 2-(((6-((1S,2S)-2-(3-chlorophenyl)cyclopropane-1-carboxamido)pyrimidin-4-yl)amino)methyl)-6-cyclopropylimidazo[1,2-a]pyridine-8-carboxamide] | 8.00 to 9.00
CS(=O)(=O)c1nc(NCc2cn3cc(C4CC4)ccc3n2)cc(NC(=O)[C@H]2C[C@@H]2c2cccc(Cl)c2)n1 (racemic) [Example 110, rac-(1S*,2S*)-2-(3-chlorophenyl)-N-(6-(((6-cyclopropylimidazo[1,2-a]pyridin-2-yl)methyl)amino)-2-(methylsulfonyl)pyrimidin-4-yl)cyclopropane-1-carboxamide] | 7.00 to 8.00
Cc1ccnc([C@H]2C[C@@H]2C(=O)Nc2cc(N[C@H](C)c3cn4cc(C5CC5)cc(N=S(C)(C)=O)c4n3)nc(C)n2)n1 [Example 431, (1S,2S)-N-(6-(((R)-1-(6-cyclopropyl-8-((dimethyl(oxo)-16-sulfaneylidene)amino)imidazo[1,2-a]pyridin-2-yl)ethyl)amino)-2-methylpyrimidin-4-yl)-2-(4-methylpyrimidin-2-yl)cyclopropane-1-carboxamide] | > 9.00
Cc1ccnc([C@H]2C[C@@H]2C(=O)Nc2cc(N[C@H](C)c3cn4cc(C5(F)CC5)cc(N5CC(=O)N(C)C5=O)c4n3)nc(C)n2)n1 [Example 436, (1S,2S)-N-(6-(((R)-1-(6-(1-fluorocyclopropyl)-8-(3-methyl-2,4-dioxoimidazolidin-1-yl)imidazo[1,2-a]pyridin-2-yl)ethyl)amino)-2-methylpyrimidin-4-yl)-2-(4-methylpyrimidin-2-yl)cyclopropane-1-carboxamide] | > 9.00
Cc1ccnc([C@H]2C[C@@H]2C(=O)Nc2cc(N[C@H](C)c3cn4cc(C(C)(F)F)cc(N5CC(=O)N(C)C5=O)c4n3)ncn2)n1 [Example 531, (1S,2S)-N-(6-(((R)-1-(6-(1,1-difluoroethyl)-8-(3-methyl-2,4-dioxoimidazolidin-1-yl)imidazo[1,2-a]pyridin-2-yl)ethyl)amino)pyrimidin-4-yl)-2-(4-methylpyrimidin-2-yl)cyclopropane-1-carboxamide] | > 9.00
COc1ccnc([C@H]2C[C@@H]2C(=O)Nc2cc(NCc3cn4cc(C5CC5)ccc4n3)ncn2)c1 (racemic) [Example I-204, rac-(1S*,2S*)-N-(6-(((6-cyclopropylimidazo[1,2-a]pyridin-2-yl)methyl)amino)pyrimidin-4-yl)-2-(4-methoxypyridin-2-yl)cyclopropane-1-carboxamide] | 6.00 to 7.00
CN1C(=O)[C@]2(C[C@H]2C(=O)Nc2cc(NCc3cn4cc(C5CC5)ccc4n3)ncn2)c2cc(Cl)ccc21 (racemic) [Example 413, rac-(1R*,2S*)-5′-chloro-N-(6-(((6-cyclopropylimidazo[1,2-a]pyridin-2-yl)methyl)amino)pyrimidin-4-yl)-1′-methyl-2′-oxospiro[cyclopropane-1,3′-indoline]-2-carboxamide] | 6.00 to 7.00
COc1cc([C@H]2C[C@@H]2C(=O)Nc2cc(NCc3cn4cc(C5CC5)ccc4n3)ncn2)cc(N)n1 (racemic) [Example 277, rac-(1S*,2S*)-2-(2-amino-6-methoxypyridin-4-yl)-N-(6-(((6-cyclopropylimidazo[1,2-a]pyridin-2-yl)methyl)amino)pyrimidin-4-yl)cyclopropane-1-carboxamide] | 6.00 to 7.00
Cc1ccnc([C@H]2C[C@@H]2C(=O)Nc2nncc(NCc3cn4cc(C5CC5)cc(N5CC(=O)N(C)C5=O)c4n3)n2)n1 [Example I-651, (1S,2S)—N-(5-(((6-cyclopropyl-8-(3-methyl-2,4-dioxoimidazolidin-1-yl)imidazo[1,2-a]pyridin-2-yl)methyl)amino)-1,2,4-triazin-3-yl)-2-(4-methylpyrimidin-2-yl)cyclopropane-1-carboxamide] | > 9.00
COc1cc([C@H]2C[C@@H]2C(=O)Nc2cc(NCc3cn4cc(C5CC5)ccc4n3)ccn2)cc(N)n1 (racemic) [Example 286, rac-(1S*,2S*)-2-(2-amino-6-methoxypyridin-4-yl)-N-(4-(((6-cyclopropylimidazo[1,2-a]pyridin-2-yl)methyl)amino)pyridin-2-yl)cyclopropane-1-carboxamide] | 7.00 to 8.00
Cc1ccnc([C@H]2C[C@@H]2C(=O)Nc2cccc(NCc3cn4cc(C5CC5)cc(N5CC(=O)N(C)C5=O)c4n3)c2)n1 [Example I-644, (1S,2S)—N-(3-(((6-cyclopropyl-8-(3-methyl-2,4-dioxoimidazolidin-1-yl)imidazo[1,2-a]pyridin-2-yl)methyl)amino)phenyl)-2-(4-methylpyrimidin-2-yl)cyclopropane-1-carboxamide] | > 9.00
N#Cc1ccc(Cl)cc1C1CC1C(=O)Nc1cc(NCc2cn3cc(C4CC4)cc(N4CCCC4=O)c3n2)ncn1 (centres unmarked) [Example 335] | 6.00 to 7.00
O=C(Nc1cc(NCc2cn3cc(Cl)ccc3n2)ncn1)[C@H]1C[C@@H]1c1cccc(Cl)c1 [Example I-203, (1S,2S)-N-(6-(((6-chloroimidazo[1,2-a]pyridin-2-yl)methyl)amino)pyrimidin-4-yl)-2-(3-chlorophenyl)cyclopropane-1-carboxamide] | 7.00 to 8.00
Cc1ccnc([C@H]2C[C@@H]2C(=O)Nc2ncc3c(n2)N(Cc2cn4cc(C5CC5)cc(N5CC(=O)N(C)C5=O)c4n2)CCO3)n1 [Example 631] | > 9.00
Cc1ccnc([C@H]2C[C@@H]2C(=O)Nc2cc(OCc3cn4cc(C5(F)CC5)cc(N5CC(=O)N(C)C5=O)c4n3)cnn2)n1 [Example 676, (1S,2S)—N-(5-((6-(1-fluorocyclopropyl)-8-(3-methyl-2,4-dioxoimidazolidin-1-yl)imidazo[1,2-a]pyridin-2-yl)methoxy)pyridazin-3-yl)-2-(4-methylpyrimidin-2-yl)cyclopropane-1-carboxamide] | > 9.00
CC(C)(C)OC(=O)Nc1cc(Cl)cc([C@H]2C[C@@H]2C(=O)Nc2cc(NCc3cn4cc(C5CC5)ccc4n3)ncn2)c1 (racemic) [Example I-189, rac-tert-butyl (3-chloro-5-((1S*,2S*)-2-((6-(((6-cyclopropylimidazo[1,2-a]pyridin-2-yl)methyl)amino)pyrimidin-4-yl)carbamoyl)cyclopropyl)phenyl)carbamate] | < 5.22
O=C(Nc1cc(NCc2cn3cc(C4CC4)ccc3n2)ccn1)[C@@H]1C[C@]12CCc1ccc(Cl)cc12 (relative stereo) [Example I-272, rac-(1S*,2S*)-6′-chloro-N-(4-(((6-cyclopropylimidazo[1,2-a]pyridin-2-yl)methyl)amino)pyridin-2-yl)-2′,3′-dihydrospiro[cyclopropane-1,1′-indene]-2-carboxamide] | 5.22 to 6.00
CS(=O)(=O)c1cc(C2CC2)cn2cc(CNc3cc(NC(=O)[C@H]4C[C@@H]4c4cc(Cl)ccn4)ncn3)nc12 [Example 325, (1S,2S)-2-(4-chloropyridin-2-yl)-N-(6-(((6-cyclopropyl-8-(methylsulfonyl)imidazo[1,2-a]pyridin-2-yl)methyl)amino)pyrimidin-4-yl)cyclopropane-1-carboxamide] | > 9.00
C[C@H]1[C@H](C(=O)Nc2cc(NCc3cn4cc(C5CC5)ccc4n3)ncn2)[C@H]1c1cccc(Cl)c1 (single isomer, unassigned) [Example 507, (1R*,2R*,3S*)-2-(3-chlorophenyl)-N-(6-(((6-cyclopropylimidazo[1,2-a]pyridin-2-yl)methyl)amino)pyrimidin-4-yl)-3-methylcyclopropane-1-carboxamide] | < 5.22

Same assay, conditions: comparative compounds, 500 pM activated kallikrein format; read-out: Primary Dose Response Assay: Average EC50

Structure (SMILES) | pEC50
O=C(Cc1ncn2ccc(Cl)cc12)Nc1cc(NCc2cn3cc(C4CC4)ccc3n2)ncn1 | 8.00 to 9.00
O=C(N[C@H]1C[C@@H]1c1cccc(Cl)c1)c1cc(NCc2cn3cc(C4CC4)ccc3n2)ncn1 | 5.22 to 6.00
